# Experimental data: patent publication US9422302B2 (priority 2013, dated 2016)
# How the values were obtained:
# δ receptor = δ receptor (Rattus norvegicus, UniProt P33533); settings: cited from earlier work
# Male, Swiss-Webster mice [1] = assay: Tail-flick antinociceptive testing (acute, antagonist and tolerance paradigms); format: in vivo; settings: for Antinociceptive tolerance development vs. Day 1, tail-flick: 15 mg/kg s.c. twice daily for five days, latencies 30 min after administration; for ED50: Mus musculus, sc; for Effect of antagonist pretreatment on UMB 425 antinociception, tail-flick: naloxone 1 mg/kg i.p. −30 min or nor-BNI 30 mg/kg i.p. −24 h before UMB 425 15 mg/kg s.c., 30 min
# Male, Swiss-Webster mice [2] = assay: Hot plate antinociceptive testing (acute, antagonist and tolerance paradigms); format: in vivo; settings: for Antinociceptive tolerance development vs. Day 1, hot plate: 15 mg/kg s.c. twice daily for five days, latencies 30 min after administration; for ED50: Mus musculus, sc; for Effect of antagonist pretreatment on UMB 425 antinociception, hot plate: naloxone 1 mg/kg i.p. −30 min or nor-BNI 30 mg/kg i.p. −24 h before UMB 425 15 mg/kg s.c., 30 min
# human δ opioid receptor [3] = target: T1, human δ opioid receptor (Homo sapiens, UniProt P41143); settings: ref (32); cited from earlier work
# human μ opioid receptor [4] = target: T2, human μ opioid receptor (Homo sapiens, UniProt P35372); assay: biochemical; format: binding
# T2 construct: expressed in transfected cells; host or cells: CHO cells (membranes)
# human κ opioid receptor [5] = target: T3, human κ opioid receptor (Homo sapiens, UniProt P41145); assay: [35S]GTPγS functional assay, hKOR-CHO membranes; format: biochemical; settings: CHO cell membranes, n/e=no effect
# T3 construct: expressed in transfected cells; host or cells: CHO cells (membranes)
# human μ opioid receptor [6] = target: T2, human μ opioid receptor; assay: biochemical
# human κ opioid receptor [7] = target: T3, human κ opioid receptor; assay: biochemical; format: binding
# human δ opioid receptor [8] = target: T1, human δ opioid receptor; assay: [35S]GTPγS functional assay, hDOR-CHO membranes (agonism; antagonism of DPDPE, Schild plot); format: biochemical; set-up: expressed in transfected cells; host or cells: CHO cells (membranes)
# human δ opioid receptor [9] = target: T1, human δ opioid receptor; assay: Opioid receptor binding, [3H]DPDPE competition in hDOR-CHO membranes; set-up: expressed in transfected cells; host or cells: CHO cells (membranes)
# [10] = 0.5 h, read-out: ED50 Tail-Flick, acute treatment paradigm
# [11] = read-out: ED50 Tail-Flick, Tolerance
# [12] = 0.5 h, read-out: ED50 Hot Plate, acute treatment paradigm
# [13] = read-out: ED50 Hot Plate, Tolerance
# [14] = acute vs. tolerance treatment paradigms
# T1 sequence (P41143 whole entry): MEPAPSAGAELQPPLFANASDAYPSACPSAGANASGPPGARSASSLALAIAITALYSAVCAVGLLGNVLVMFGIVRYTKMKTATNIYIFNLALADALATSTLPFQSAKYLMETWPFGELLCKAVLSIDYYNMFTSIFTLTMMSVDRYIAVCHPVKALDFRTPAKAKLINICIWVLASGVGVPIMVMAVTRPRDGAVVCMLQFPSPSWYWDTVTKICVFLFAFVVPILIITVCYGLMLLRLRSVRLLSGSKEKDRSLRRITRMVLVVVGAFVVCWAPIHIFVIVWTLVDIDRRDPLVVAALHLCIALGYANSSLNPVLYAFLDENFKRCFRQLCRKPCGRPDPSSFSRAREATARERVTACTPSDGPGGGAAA
# δ receptor, sequence (P33533 whole entry): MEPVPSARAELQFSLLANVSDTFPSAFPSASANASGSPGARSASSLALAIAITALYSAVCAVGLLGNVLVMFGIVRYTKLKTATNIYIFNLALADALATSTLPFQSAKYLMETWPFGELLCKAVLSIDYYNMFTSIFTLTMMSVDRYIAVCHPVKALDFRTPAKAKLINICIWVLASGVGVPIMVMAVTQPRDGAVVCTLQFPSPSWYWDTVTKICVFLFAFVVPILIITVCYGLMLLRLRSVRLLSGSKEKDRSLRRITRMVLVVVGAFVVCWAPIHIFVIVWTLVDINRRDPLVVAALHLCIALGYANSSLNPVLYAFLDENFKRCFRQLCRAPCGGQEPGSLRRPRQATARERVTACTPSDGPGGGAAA
# T2 sequence (P35372 whole entry): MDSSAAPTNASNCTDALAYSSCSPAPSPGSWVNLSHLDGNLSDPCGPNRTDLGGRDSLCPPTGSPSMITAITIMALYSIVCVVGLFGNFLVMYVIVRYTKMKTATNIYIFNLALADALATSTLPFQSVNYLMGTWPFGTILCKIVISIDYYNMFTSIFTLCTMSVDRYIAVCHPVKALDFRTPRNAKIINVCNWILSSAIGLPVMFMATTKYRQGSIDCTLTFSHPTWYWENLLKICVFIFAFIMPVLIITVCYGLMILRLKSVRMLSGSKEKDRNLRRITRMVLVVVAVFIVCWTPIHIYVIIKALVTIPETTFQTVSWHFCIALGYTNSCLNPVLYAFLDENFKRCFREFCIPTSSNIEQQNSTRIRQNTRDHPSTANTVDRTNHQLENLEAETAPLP
# T3 sequence (P41145 whole entry): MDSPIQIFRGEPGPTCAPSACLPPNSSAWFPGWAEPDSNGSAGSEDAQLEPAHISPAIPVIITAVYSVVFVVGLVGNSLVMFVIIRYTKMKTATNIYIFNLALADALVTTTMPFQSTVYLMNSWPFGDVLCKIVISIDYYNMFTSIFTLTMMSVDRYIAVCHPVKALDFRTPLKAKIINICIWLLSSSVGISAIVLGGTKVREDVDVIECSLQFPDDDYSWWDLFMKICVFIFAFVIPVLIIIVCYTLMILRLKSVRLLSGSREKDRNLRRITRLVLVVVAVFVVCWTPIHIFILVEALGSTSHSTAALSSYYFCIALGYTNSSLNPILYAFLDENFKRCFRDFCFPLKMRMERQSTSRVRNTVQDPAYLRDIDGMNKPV
smiles,measurement,setting,value
"O=C1/C(=C/c2ccccc2)C[C@@]2(O)[C@H]3Cc4ccc(O)c5c4[C@@]2(CCN3CC2CC2)[C@H]1O5 [(E)-BNTX, (E)-benzylidenenaltrexone]",Relative % Emax Experimental,δ receptor,0.00
"CN1CC[C@]23c4c5ccc(O)c4O[C@H]2[C@@H](O)C=C[C@H]3[C@H]1C5 [Morphine, reference compound]","Antinociceptive tolerance development vs. Day 1, tail-flick","Male, Swiss-Webster mice [1]",significantly decreased antinociceptive activity on Day 4 and 5
same,ED50,"Male, Swiss-Webster mice [1]; [10]",6.85 mg/kg
same,ED50,"Male, Swiss-Webster mice [1]; [11]",44.1 mg/kg
same,"Antinociceptive tolerance development vs. Day 1, hot plate","Male, Swiss-Webster mice [2]",significantly decreased antinociceptive activity on Day 4 and 5
same,ED50,"Male, Swiss-Webster mice [2]; [12]",2.73 mg/kg
same,ED50,"Male, Swiss-Webster mice [2]; [13]",21.3 mg/kg
Oc1ccc2c3c1O[C@H]1c4[nH]c5ccccc5c4C[C@@]4(O)[C@@H](C2)N(CC2CC2)CC[C@]314 [Naltrindole],pA2 δ (literature),human δ opioid receptor [3],10.92
same,Relative % Emax Experimental,δ receptor,0.00
CN1CC[C@]23c4c5ccc(O)c4O[C@H]2c2[nH]c4ccccc4c2C[C@@]3(O)[C@H]1C5 [Oxymorphindole],Relative % Emax Experimental,δ receptor,0.12
"CN1CC[C@]23c4c5ccc(O)c4O[C@H]2C(=O)C2(Cc4ccccc4C2)C[C@@]3(O)[C@H]1C5 [SIOM, 7-spiroindanyloxymorphone]",Relative % Emax Experimental,δ receptor,0.18
"CN1CCC23c4c5ccc(O)c4OC2(CO)C(=O)CCC3(O)C1C5 (stereo not drawn) [UMB 425, 4a,9-dihydroxy-7a-(hydroxymethyl)-3-methyl-2,3,4,4a,5,6-hexahydro-1H-4,12-methanobenzofuro[3,2-e]isoquinolin-7(7aH)-one]",Ki,human μ opioid receptor [4],3.2 ± 0.14 nM
same,"Antinociceptive tolerance development vs. Day 1, tail-flick","Male, Swiss-Webster mice [1]",n.s.
same,"Antinociceptive activity compared with morphine in tolerance paradigm, tail-flick","Male, Swiss-Webster mice [1]; Day 5, 15 mg/kg s.c. twice daily",statistically greater antinociceptive activity than morphine
same,ED50,"Male, Swiss-Webster mice [1]; [10]",8.83 mg/kg
same,ED50,"Male, Swiss-Webster mice [1]; [11]",11.6 mg/kg
same,"Shift in ED50, Tail-Flick","Male, Swiss-Webster mice [1]; [14]",1.3 fold
same,"Reduction in ED50 shift compared to morphine, tail-flick","Male, Swiss-Webster mice [1]; tolerance paradigm",4.9 fold
same,"Antinociceptive tolerance development vs. Day 1, hot plate","Male, Swiss-Webster mice [2]",significantly decreased antinociceptive activity on Day 4 and 5
same,"Antinociceptive activity compared with morphine in tolerance paradigm, hot plate","Male, Swiss-Webster mice [2]; Day 4 and 5, 15 mg/kg s.c. twice daily",statistically greater antinociceptive activity than morphine
same,ED50,"Male, Swiss-Webster mice [2]; [12]",4.3 mg/kg
same,ED50,"Male, Swiss-Webster mice [2]; [13]",13 mg/kg
same,"Shift in ED50, Hot Plate","Male, Swiss-Webster mice [2]; [14]",3.0 fold
same,"Reduction in ED50 shift compared to morphine, hot plate","Male, Swiss-Webster mice [2]; tolerance paradigm",2.6 fold
same,EC50 ± S.E.M. κ (agonist activity),human κ opioid receptor [5],no significant agonist activity and n/e
same,% Emax μ,human μ opioid receptor [6],73±7.3%
same,EC50,human μ opioid receptor [6],35 ± 3.7 nM
same,Emax,human μ opioid receptor [6]; read-out: % Emax ± S.E.M. μ,73 ± 7.3%
same,Ki,human κ opioid receptor [7],212 ± 21 nM
same,κ/μ binding affinity ratio,human κ opioid receptor [7],66
same,Kb,human δ opioid receptor [8],759 nM
same,pA2 δ,"human δ opioid receptor [8]; Schild plot, DPDPE dose-response curves with 200 nM, 600 nM, 2 μM UMB 425",6.12
same,EC50 ± S.E.M. δ (agonist activity),"human δ opioid receptor [8]; [35S]GTPγS, CHO cell membranes, n/e=no effect",no significant agonist activity and n/e
same,Ki,human δ opioid receptor [9],208 ± 18 nM
same,δ/μ binding affinity ratio,human δ opioid receptor [9]; ratio of Ki values,65
"C=CCN1CC[C@]23c4c5ccc(O)c4O[C@H]2C(=O)CC[C@@]3(O)[C@H]1C5 [naloxone, reference compound]","Effect of antagonist pretreatment on UMB 425 antinociception, tail-flick","Male, Swiss-Webster mice [1]",significantly attenuated UMB 425-mediated antinociception
same,"Effect of antagonist pretreatment on UMB 425 antinociception, hot plate","Male, Swiss-Webster mice [2]",significantly attenuated UMB 425-mediated antinociception
"Oc1ccc2c3c1O[C@H]1c4[nH]c5c(c4C[C@@]4(O)[C@@H](C2)N(CC2CC2)CC[C@]314)C[C@@]1(O)[C@H]2Cc3ccc(O)c4c3[C@@]1(CCN2CC1CC1)[C@H]5O4 [nor-BNI, norbinaltorphimine, reference compound]","Effect of antagonist pretreatment on UMB 425 antinociception, tail-flick","Male, Swiss-Webster mice [1]",failed to significantly attenuate UMB 425-mediated antinociception
same,"Effect of antagonist pretreatment on UMB 425 antinociception, hot plate","Male, Swiss-Webster mice [2]",failed to significantly attenuate UMB 425-mediated antinociception
